The results in this text go back to BindingDB's records for patent US11884671 (AstraZeneca, 2024).

In experiment [1] the target is T1, Dual specificity protein kinase TTK (Homo sapiens, UniProt P33981).
T1 sequence (P33981 whole entry): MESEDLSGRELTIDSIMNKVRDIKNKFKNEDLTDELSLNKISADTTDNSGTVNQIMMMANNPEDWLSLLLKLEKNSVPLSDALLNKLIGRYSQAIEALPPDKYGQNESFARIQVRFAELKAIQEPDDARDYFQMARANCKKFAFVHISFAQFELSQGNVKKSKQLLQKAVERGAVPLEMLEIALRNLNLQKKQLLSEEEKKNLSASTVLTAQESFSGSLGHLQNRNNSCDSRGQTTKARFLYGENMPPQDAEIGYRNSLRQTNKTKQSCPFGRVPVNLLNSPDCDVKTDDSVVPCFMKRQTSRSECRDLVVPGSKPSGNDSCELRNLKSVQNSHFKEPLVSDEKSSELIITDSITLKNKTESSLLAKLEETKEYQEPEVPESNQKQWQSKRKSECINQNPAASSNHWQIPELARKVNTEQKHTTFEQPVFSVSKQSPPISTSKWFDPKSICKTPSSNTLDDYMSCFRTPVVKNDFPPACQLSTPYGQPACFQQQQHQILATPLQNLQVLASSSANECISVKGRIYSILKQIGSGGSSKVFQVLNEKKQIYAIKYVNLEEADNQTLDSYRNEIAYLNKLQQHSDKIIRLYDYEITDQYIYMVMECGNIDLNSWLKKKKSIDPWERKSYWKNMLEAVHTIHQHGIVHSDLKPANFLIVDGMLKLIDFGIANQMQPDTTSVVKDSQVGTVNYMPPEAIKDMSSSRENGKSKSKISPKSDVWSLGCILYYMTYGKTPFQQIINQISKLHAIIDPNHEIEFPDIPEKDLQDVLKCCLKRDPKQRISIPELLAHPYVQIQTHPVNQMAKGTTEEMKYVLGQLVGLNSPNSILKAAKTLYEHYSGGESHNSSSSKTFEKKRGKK
As to the kind of experiment: TTK Enzyme Assay. The procedure:
The inhibitory activity of compounds against TTK was determined in a LanthaScreen Eu Kinase Binding assay run by ThermoFisher Scientific as part of their SelectScreen Biochemical Kinase Profiling Service. The LanthaScreen Eu Kinase Binding assay format uses binding of an Alexa Fluor conjugate or tracer to a kinase, which is detected by addition of a Eu-labeled anti-tag antibody. […] Plates were then read using a fluorescence plate reader.

The target of experiment [2] is Tyrosine-protein kinase JAK1 (Homo sapiens, UniProt P23458). As to the kind of experiment: Enzyme Assay.
Sequence of Tyrosine-protein kinase JAK1 (P23458 whole entry): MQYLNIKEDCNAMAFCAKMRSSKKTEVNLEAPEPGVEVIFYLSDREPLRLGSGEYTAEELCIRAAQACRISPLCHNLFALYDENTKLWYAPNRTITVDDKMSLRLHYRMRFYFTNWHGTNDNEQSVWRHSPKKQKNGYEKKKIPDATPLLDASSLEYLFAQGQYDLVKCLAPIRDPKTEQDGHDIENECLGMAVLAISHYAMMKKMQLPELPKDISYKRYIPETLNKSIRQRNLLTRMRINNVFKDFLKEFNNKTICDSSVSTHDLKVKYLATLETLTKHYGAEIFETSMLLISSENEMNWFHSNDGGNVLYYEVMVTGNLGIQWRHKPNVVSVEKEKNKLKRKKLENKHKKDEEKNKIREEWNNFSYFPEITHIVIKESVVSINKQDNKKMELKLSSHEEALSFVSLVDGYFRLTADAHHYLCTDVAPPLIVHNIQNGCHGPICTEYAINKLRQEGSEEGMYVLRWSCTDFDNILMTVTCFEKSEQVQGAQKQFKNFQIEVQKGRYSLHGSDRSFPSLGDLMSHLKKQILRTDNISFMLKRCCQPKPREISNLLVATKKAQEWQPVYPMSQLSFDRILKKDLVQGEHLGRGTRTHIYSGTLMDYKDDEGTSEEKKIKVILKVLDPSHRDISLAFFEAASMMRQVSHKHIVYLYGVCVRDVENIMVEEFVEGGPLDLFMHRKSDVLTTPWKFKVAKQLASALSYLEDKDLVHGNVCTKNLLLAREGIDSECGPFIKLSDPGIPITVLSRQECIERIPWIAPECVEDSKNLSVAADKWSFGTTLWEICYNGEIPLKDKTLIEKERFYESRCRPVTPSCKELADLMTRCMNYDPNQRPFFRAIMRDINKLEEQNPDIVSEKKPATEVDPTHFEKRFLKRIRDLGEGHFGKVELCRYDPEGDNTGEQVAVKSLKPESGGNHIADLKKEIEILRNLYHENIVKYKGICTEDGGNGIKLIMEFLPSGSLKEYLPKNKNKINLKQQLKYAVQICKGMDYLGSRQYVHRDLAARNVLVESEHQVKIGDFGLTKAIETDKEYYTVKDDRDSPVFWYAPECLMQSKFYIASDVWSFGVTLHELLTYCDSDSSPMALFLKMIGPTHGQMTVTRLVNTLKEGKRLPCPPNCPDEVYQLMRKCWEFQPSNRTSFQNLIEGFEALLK
Method: JAK1: The 2×JAK/Tyr 06 (ThermoFisher Scientific proprietary) mixture was prepared in 50 mM HEPES pH 6.5, 0.01% BRIJ-35, 10 mM MgCl2, 1 mM EGTA, 0.02% NaN3.
In experiment [3] the target is Tyrosine-protein kinase JAK2 (Homo sapiens, UniProt O60674). The experiment can be described thus: Enzyme Assay.
Sequence of Tyrosine-protein kinase JAK2 (O60674 whole entry): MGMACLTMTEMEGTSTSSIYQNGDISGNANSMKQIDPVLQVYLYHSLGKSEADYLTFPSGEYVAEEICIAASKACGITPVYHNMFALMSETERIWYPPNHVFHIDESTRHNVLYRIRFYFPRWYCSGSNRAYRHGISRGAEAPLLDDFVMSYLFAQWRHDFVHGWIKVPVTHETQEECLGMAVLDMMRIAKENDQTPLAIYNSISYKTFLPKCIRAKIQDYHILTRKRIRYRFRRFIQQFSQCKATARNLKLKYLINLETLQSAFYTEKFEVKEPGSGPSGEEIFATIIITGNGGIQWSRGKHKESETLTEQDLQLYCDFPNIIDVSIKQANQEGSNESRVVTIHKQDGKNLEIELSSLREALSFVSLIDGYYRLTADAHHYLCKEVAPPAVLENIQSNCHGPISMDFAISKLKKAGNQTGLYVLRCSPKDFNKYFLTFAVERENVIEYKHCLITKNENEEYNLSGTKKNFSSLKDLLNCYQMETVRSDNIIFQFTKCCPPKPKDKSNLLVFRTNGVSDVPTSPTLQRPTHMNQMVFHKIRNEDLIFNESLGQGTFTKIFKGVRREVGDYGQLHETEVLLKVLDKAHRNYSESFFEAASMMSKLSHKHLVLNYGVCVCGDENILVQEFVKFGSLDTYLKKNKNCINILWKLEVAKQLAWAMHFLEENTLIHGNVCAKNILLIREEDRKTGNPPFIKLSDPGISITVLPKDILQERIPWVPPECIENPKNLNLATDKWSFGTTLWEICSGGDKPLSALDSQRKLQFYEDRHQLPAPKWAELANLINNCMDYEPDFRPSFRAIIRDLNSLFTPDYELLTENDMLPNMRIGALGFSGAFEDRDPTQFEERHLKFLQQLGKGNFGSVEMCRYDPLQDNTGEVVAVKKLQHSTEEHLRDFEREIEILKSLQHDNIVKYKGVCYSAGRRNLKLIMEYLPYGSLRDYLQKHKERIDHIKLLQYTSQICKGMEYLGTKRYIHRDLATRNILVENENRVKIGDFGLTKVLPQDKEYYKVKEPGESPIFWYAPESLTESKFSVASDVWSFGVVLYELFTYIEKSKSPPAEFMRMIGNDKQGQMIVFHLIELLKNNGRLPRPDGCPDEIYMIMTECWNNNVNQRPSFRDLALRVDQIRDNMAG
Method: JAK2: The 2×JAK2/Tyr 06 (ThermoFisher Scientific proprietary) mixture was prepared in 50 mM HEPES pH 7.5, 0.01% BRIJ-35, 10 mM MgCl2, 1 mM EGTA.
In experiment [4] the target is T2, Tyrosine-protein kinase JAK3 (Homo sapiens, UniProt P52333).
T2 sequence (P52333 whole entry): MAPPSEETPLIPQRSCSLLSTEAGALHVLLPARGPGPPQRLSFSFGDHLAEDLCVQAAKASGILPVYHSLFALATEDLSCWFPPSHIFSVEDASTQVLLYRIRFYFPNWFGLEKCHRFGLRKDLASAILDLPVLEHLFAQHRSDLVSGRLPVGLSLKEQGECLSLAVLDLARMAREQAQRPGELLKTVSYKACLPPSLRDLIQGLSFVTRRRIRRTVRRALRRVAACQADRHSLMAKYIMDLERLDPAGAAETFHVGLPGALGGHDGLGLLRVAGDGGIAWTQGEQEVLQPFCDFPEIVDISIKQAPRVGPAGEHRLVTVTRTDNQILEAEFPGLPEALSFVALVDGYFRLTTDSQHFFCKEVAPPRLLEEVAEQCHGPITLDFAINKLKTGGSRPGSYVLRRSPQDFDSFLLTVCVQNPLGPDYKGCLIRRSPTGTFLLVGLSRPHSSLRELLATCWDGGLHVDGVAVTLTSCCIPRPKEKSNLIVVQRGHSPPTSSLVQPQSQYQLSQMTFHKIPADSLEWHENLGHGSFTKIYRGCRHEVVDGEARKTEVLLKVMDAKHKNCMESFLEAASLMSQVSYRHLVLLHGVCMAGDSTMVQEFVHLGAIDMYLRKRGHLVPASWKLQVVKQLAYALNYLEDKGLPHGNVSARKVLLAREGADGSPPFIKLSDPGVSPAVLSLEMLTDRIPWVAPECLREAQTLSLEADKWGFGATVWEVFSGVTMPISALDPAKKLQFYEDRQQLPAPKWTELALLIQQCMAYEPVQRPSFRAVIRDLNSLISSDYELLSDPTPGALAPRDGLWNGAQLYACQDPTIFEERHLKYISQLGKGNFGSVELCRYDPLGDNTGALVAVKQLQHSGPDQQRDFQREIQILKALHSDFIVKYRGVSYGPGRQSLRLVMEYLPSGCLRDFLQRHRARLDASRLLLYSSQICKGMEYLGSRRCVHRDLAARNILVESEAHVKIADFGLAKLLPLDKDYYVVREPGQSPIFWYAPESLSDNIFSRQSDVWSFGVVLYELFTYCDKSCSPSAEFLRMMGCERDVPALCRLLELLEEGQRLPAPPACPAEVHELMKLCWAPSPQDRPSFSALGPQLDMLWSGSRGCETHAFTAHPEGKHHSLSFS
The experiment can be described thus: Enzyme Assay.
Method: JAK3: The 2×JAK3/Tyr 06 (ThermoFisher Scientific proprietary) mixture was prepared in 50 mM HEPES pH 7.5. 0.01% BRIJ-35, 10 mM MgCl2, 1 mM EGTA.

The next experiment concerns the target Aurora kinase B (Homo sapiens, UniProt Q96GD4). As to the kind of experiment: Enzyme Assay.
The next experiment has as its target T3, Aurora kinase A (Homo sapiens, UniProt O14965).
T3 sequence (O14965 whole entry): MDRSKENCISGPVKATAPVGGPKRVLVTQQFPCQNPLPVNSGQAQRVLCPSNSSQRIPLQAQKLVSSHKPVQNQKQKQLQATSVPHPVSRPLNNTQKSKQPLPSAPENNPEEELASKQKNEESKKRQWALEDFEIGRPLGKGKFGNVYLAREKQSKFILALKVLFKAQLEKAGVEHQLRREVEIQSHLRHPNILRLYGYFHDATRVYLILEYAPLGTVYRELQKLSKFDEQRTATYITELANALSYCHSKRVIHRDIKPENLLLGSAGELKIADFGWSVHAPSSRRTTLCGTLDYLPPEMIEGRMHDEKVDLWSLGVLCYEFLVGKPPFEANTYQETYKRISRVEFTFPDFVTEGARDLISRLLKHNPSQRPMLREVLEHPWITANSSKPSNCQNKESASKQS

Some results are limits rather than exact numbers.

By IC50 is commonly meant the concentration needed to halve the response being measured. The low end stands for greater potency, the high end for weaker potency.

Sequence of Aurora kinase B (Q96GD4 whole entry): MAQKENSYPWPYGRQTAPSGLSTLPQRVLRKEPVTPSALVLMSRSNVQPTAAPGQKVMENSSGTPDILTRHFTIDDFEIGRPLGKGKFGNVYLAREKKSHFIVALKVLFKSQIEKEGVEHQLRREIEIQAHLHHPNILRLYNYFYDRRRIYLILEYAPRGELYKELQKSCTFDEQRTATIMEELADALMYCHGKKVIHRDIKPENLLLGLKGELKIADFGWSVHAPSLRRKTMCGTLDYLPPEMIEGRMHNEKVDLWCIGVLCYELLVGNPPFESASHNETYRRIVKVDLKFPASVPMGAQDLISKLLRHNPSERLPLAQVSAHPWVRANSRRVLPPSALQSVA
Method for Aurora kinase B: Aurora B (AurB): The 2×AURKB (Aurora B)/Ser/Thr 01 (ThermoFisher Scientific proprietary) mixture was prepared in 50 mM HEPES pH 7.5, 0.01% BRIJ-35, 10 mM MgCl2, 1 mM EGTA.

In the case of `Cc1cc2ncccc2cc1Nc1ncc2c(n1)n([C@H]1CC[C@@](C)(O)CC1)c(=O)n2C` [US11884671, Example 14], the IC50 in experiment [1] was 0.1 µM; in experiment [2] it was more than 10 µM; in experiment [3] it was more than 10 µM; in experiment [4], more than 10 µM; against Aurora kinase B it was more than 10 µM; on Aurora kinase A, more than 10 µM.

For `Cc1cc2ncccc2cc1Nc1ncc2c(n1)n([C@H]1CC[C@](C)(O)CC1)c(=O)n2C` [US11884671, Example 15], the IC50 is 0.251 µM in experiment [1]; more than 10 µM in experiment [2]; more than 10 µM in experiment [3]; more than 10 µM in experiment [4]; more than 10 µM on Aurora kinase B; more than 10 µM at Aurora kinase A.

In the case of `Cc1cc2nnccc2cc1Nc1ncc2c(n1)n([C@H]1CC[C@@](C)(O)CC1)c(=O)n2C` [US11884671, Example 16], the IC50 in experiment [1] was 0.2 µM; in experiment [2], more than 10 µM; in experiment [3] it was more than 10 µM; in experiment [4], more than 10 µM; at Aurora kinase B, more than 10 µM; against Aurora kinase A, more than 10 µM.

As for `Cc1cc2nnccc2cc1Nc1ncc2c(n1)n([C@H]1CC[C@](C)(O)CC1)c(=O)n2C` [US11884671, Example 17], the IC50 in experiment [1] is 0.316 µM; in experiment [2], more than 10 µM; in experiment [3], more than 10 µM; in experiment [4] it was more than 10 µM; on Aurora kinase B, more than 10 µM; at Aurora kinase A, more than 10 µM.
